Measured values: PMC12114444, “Biochemical Characterization and Polyester-Binding/Degrading Capability of Two Cutinases from Aspergillus fumigatus” (Microorganisms, 2025)

System: AfCutB
Conditions: 30 °C, 5 min; standard assay 0.05 M Tris-HCl pH 8.5 (results text: optimal conditions, optimum pH 9.0)

CCCC(=O)Oc1ccc([N+](=O)[O-])cc1 [p-nitrophenyl butyrate]
Km: 6.29 mM
